The numbers were not newly measured in patent publication US20220218701A1, “COMPOSITIONS AND METHODS COMPRISING ENDOTHELIN A RECEPTOR ANTAGONISTS AND ANDROGEN THERAPIES” (priority 2019, published 2022), which cites them from elsewhere.

Series [1] deals with breast cancer osteosclerotic bone metastasis. The following applies: mouse, in vivo; cited from earlier work.
In series [2] the test system is prostate cancer bone metastasis. Conditions: in vivo; cited from earlier work.
A further series deals with metastatic CRPC. The following applies: cited from earlier work.
Series [3] relates to metastatic prostate cancer. The following applies: cited from earlier work.
Series [4] concerns castrate-resistant prostate cancer (CRPC). Conditions: phase 2, 288 men with CRPC, cited from earlier work.
The test system of the next series is osteoblast. Conditions: cited from earlier work.

Consider `CCCCN(CCCC)C(=O)CN1C[C@H](c2ccc3c(c2)OCO3)[C@@H](C(=O)O)[C@@H]1c1ccc(OC)cc1` [atrasentan], for which, in series [1], the “formation of osteoblastic lesions” value is on record as “blocked” and the “tumor progression outside of bone” value was “not tumor progression outside of bone”. In series [2], the bone lesions result is “significantly reduced”; the “lesions outside of the skeleton such as adrenal gland and liver” value is recorded as “not lesions outside of the skeleton”. Moreover, in the series on metastatic CRPC (men with metastatic CRPC treated with docetaxel), the “overall or progression-free survival compared to placebo” value is on record as “did not improve”. For the same molecule, the survival result in the series with metastatic CRPC (patients with the highest circulating levels of bone turnover markers) is listed as “survival benefit”. Further, in series [3] (phase 3, 809 men with metastatic disease), the “time to progression (primary endpoint)” value was “did not reduce”. Also, in series [3] (phase 3, secondary analyses), the “bone alkaline phosphatase progression” value is “did reduce”. The “prostate-specific antigen (PSA) progression” value in series [4] was “delayed”. For the same molecule, the time to progression in series [4] (increased from 129) is on record as 196 days. Besides, the “anabolic effects of ET-1 on the osteoblast” value in the series on osteoblast is given as “block”.
